Data reported in publication PMC11359702, “Synthesis and Biochemical Evaluation of Ethanoanthracenes and Related Compounds: Antiproliferative and Pro-Apoptotic Effects in Chronic Lymphocytic Leukemia (CLL)” (Pharmaceuticals, 2024).
Values joined by “and” are separate entries in the source; they are usually repeats but may differ in a detail not shown here. Equal entries are not always repeated. Where two headings read alike, the source gives them in different places. Each block holds one molecule with its values, some of them ahead of it.

Experiments:
HG-3 cells [1] = assay: alamarBlue cell viability assay; details: for IC50 / viability at 10 µM / viability at 1 µM: HG-3, 24 h; for IC50: read-out: HG-3 IC50; for viability at 1 µM: read-out: cell viability, HG-3, 1 µM, 24 h, vehicle = 100%
HG-3 cells [2] = assay: LDH cytotoxicity assay (CytoTox 96); format: cell-based; details: 24 h
From the text: (§1) The lactate dehydrogenase (LDH) assay is used to assess the membrane integrity of cells as a function of the cytoplasmic LDH released. The loss of cell membrane integrity (due to cytotoxic insult) is detectable through LDH release into the cell growth medium. The assay is initiated via the reduction in cellular co-factor NAD^+ to NADH catalyzed via the LDH enzyme. Newly formed NADH catalyzes the acidic reduction in iodonitrotetrazolium chloride (INT) to the highly colored formazan (red) (mediated via the diaphorase enzyme). […] At the 10-µM treatment concentration, mild to moderate cytotoxicity (19–47%) was observed. […] Cytotoxicity remained low to mild at 1 µM (4–18%) with 23a displaying the lowest LDH release (4%).
(§2) Following the treatment of the HG-3 and PGA-1 cells at 10 µM for 24 hr, the amount of LDH released was determined using an LDH assay kit from Promega (G1780). Cell lysis solution = 100% cell lysis and LDH release). Data are presented as % cell death at a concentration of 10 µM. Cells were treated with ethanoanthracene compounds 20a, 20f, 23a and 25n (1 µM and 10 µM) for 24 h. Values are shown as the mean of three independent experiments.
(§3) The cytotoxicity of the selected compounds 20a, 20f, 23a and 25n was determined using the CytoTox 96 non-radioactive cytotoxicity assay (Promega Corporation; 2800 Woods Hollow Road, Madison, WI, USA). CLL cells HG-3 and PGA-1 were incubated for 24 h and then treated with the selected compounds 20a, 20f, 23a and 25n at 10-µM and 1-µM concentrations, following the protocol outlined above in the cell viability assay. After 24 h, the lysis solution (10×) (20 µL) was added, and the cells were incubated for a further 1 h to ensure complete cell death. Supernatant (50 µL) was removed from each well and transferred to a clean 96-well plate. “Substrate mix” (50 µL) was added, and the plate was stored in the dark at 20 °C for 30 min. “Stop solution” (50 µL) was added to each well, and the absorbance at 490 nm was recorded using a Dynatech MR5000 plate reader; the % cell death was determined relative to the control cell lysis solution.

PGA-1 cells [3] = assay: LDH cytotoxicity assay (CytoTox 96); format: cell-based; details: PGA-1, 10 µM, 24 h
From the text: as §1, §2, §3

HG-3 cells [4] = assay: Annexin V/PI apoptosis assay (FACS); format: cell-based, human
Procedure: (§4) The pro-apoptotic effects of selected nitrovinylethanoanthracene compounds 20a and 20f and anthracene chalcones 23a and 25n in HG-3 cells and PGA-1 cells was then investigated using FITC (fluorescein isothiocyanate), Annexin V/PI (propidium iodide) and FACS (fluorescence-activated cell sorting) analysis to characterize the mode of cellular death induced. Apoptosis was assessed as % total apoptosis (total of early (Q3) and late (Q2) apoptosis).
(§5) CLL cells PGA-1 and HG-3 (1 × 10^6 cells/mL) were treated at 37 °C with either the vehicle (1% (v/v) DMSO) or the ethanoanthracene compounds 20a, 20f, 23a and 25n (10 µM, 5 µM and 1 µM) for 48 h, following the protocol previously described. The cells were then harvested via centrifugation at 400× g in a temperature-controlled Sorvall centrifuge. The cells were rinsed with Ca^2+ Annexin-V-binding buffer (0.1 M HEPES, pH 7.4; 0.14 M NaCl; 25 mM CaCl2, 0.5 mL). The samples were resuspended in FITC Annexin V (diluted 1:33 in Ca^2+ Annexin V-binding buffer, 50 µL) and incubated for 10 min (on ice and protected from light). The samples were washed with Annexin-V-binding buffer and resuspended in a PI solution (0.5 µg/mL, 500 µL) and analyzed within 1 h using a BD Accuri C6 flow cytometer counting 10,000 cells using the FlowJo software Version 10 (FlowJo LLC, Ashland, OR, USA).

PGA-1 cells [5] = assay: Annexin V/PI apoptosis assay (FACS); format: cell-based, human
Procedure: as §4, §5

PGA-1 cells [6] = assay: alamarBlue cell viability assay; details: for IC50: read-out: PGA-1 IC50; for viability at 10 µM: read-out: cell viability
HG-3 cells [7] = details: 10 µM
HL-60(TB) = assay: NCI-60 five-dose assay; format: cell-based, human; details: HL-60(TB)
MOLT-4 = assay: NCI-60 five-dose assay; format: cell-based, human; details: MOLT-4
[8] = tested on: HG-3 and PGA-1 cell lines; assay: alamarBlue cell viability assay, mean of both CLL cell lines; format: cell-based, human; details: mean of HG-3 and PGA-1
[9] = tested on: NCI 60 cancer cell line panel; assay: NCI-60 five-dose assay, full-panel means; format: cell-based
Procedure: A number of our most promising compounds identified through preliminary cell viability testing (23c, 23d, 23f, 23h, 23l, 23m, 23n, 23o, 24f, 24l, 25n and 26n) were selected for NCI drug screening in the 60-cell-line panel. The panel includes nine subcategories based on cancer tissue types, which include leukemia, ovarian, central nervous system, breast, lung, prostate, skin, renal and colon cancer. The compounds were initially assessed in a one-dose assay at a fixed treatment concentration of 10 µM. The compounds selected for further investigation were progressed to a five-dose assay across the concentration ranges of 0.01, 0.1, 1, 10 and 100 µM [72]. The endpoints assessed in the screening protocol were GI50, TGI and LC50 [72].

SR = assay: NCI-60 five-dose assay; format: cell-based, human
K-562 = assay: NCI-60 five-dose assay; format: cell-based, human; details: K-562
CCRF-CEM = assay: NCI-60 five-dose assay; format: cell-based, human
[10] = HPLC stability study in phosphate buffers; format: physicochemical; details: 37 °C
Procedure: A preliminary stability study was carried out on selected chalcones, maleic anhydride and maleimide adducts at acidic, neutral and basic conditions (pH 4, 7.4 and 9) using HPLC to determine suitability for further preclinical investigations. […] A possible degradation route for the maleimide 23n could be through the hydrolysis of the cyclic imide of the maleimide ring, leading to the resultant amic acid product.
All samples were analyzed using acetonitrile–water (80:20%, 70:30%, 60:40% isocratic) as the mobile phase over 10 min and a flow rate of 1 mL/min. Stock solutions were prepared by dissolving 5 mg of compounds in a mobile phase ([(acetonitrile (80%): water (20%)], 10 mL). Anhydride 22h was not detected at its retention time of 5.2 min at pH 9.0. The data presented represent the results of single experiments.
The HPLC stability studies for compounds 21a, 21i, 22h, 23a, 23g, 23n, 24a, 24h, 26a and 26n were performed using a Symmetry® column (C18, 5 µm, 4.6 × 150 mm), a Waters 2487 Dual Wavelength Absorbance detector, and an HPLC pump: Waters 1525 binary and Autosampler; Waters 717 plus (Waters Corporation, Milford, MA, USA), mobile phase [(acetonitrile (80%) and water (20%)] with a typical run time of 10 min and a flow rate of 1 mL/min with detection at 254 nm. The selected compounds 21a, 21i, 22h, 23a, 23g, 23n, 24a, 24h, 26a and 26n (5 mg) in the mobile phase (10 mL) provided the stock solution for the analysis. The phosphate buffers were prepared at pH values of 4, 7.4 and 9, as described in the British Pharmacopoeia monograph 2019. The stock solution (30 µL) was added to the appropriate buffer (1 mL) and retained at 37 °C. Samples were then analyzed over the following 24-h period at selected time intervals (t = 0 min, 5 min, 30 min, 60 min, 90 min, 120 min and 24 h).

RPMI-8226 = assay: NCI-60 five-dose assay; format: cell-based, human; details: RPMI-8226
PGA-1 cells [11] = details: 10 µM
leukemia cell panel = assay: NCI-60 five-dose assay, leukemia cell panel mean; format: cell-based, human; details: mean across the six leukemia cell lines
[12] = Homo sapiens, read-out: cell viability, HG-3, 10 µM, 24 h, vehicle = 100%

SMILES: O=C1C2C3c4ccccc4C(C=C[N+](=O)[O-])(c4ccccc43)C2C(=O)N1CCCCCCN1C(=O)C2C3c4ccccc4C(C=C[N+](=O)[O-])(c4ccccc43)C2C1=O (centres unmarked) [Compound 20f]
potency relative to fludarabine control (HG-3 cells [1]; HG-3, IC50 ratio): 165 fold
IC50 (HG-3 cells [1]; Homo sapiens): 0.17 µM
viability at 10 µM (HG-3 cells [1]; Homo sapiens, read-out: cell viability): 14 to 43%
LDH release (cytotoxicity, % cell death) (HG-3 cells [2]; HG-3, 1 µM): 12%
LDH release (cytotoxicity, % cell death) (HG-3 cells [2]; HG-3, 10 µM, lysis solution = 100%): 19%
LDH release (cytotoxicity, % cell death) (PGA-1 cells [3]): 19%
total apoptosis (early Q3 + late Q2) (HG-3 cells [4]; HG-3, 1 µM): 82%
total apoptosis (early Q3 + late Q2) (HG-3 cells [4]; HG-3, 10 µM): 82–95% and 82%
total apoptosis (early Q3 + late Q2) (PGA-1 cells [5]; PGA-1, 1 µM): 76%
total apoptosis (early Q3 + late Q2) (PGA-1 cells [5]; PGA-1, 10 µM): 87–97% and 88%
IC50 (PGA-1 cells [6]; Homo sapiens, 24 h): 0.35 µM
viability at 10 µM (PGA-1 cells [6]; Homo sapiens, 24 h): 17%
potency relative to fludarabine control (PGA-1 cells [6]; PGA-1, IC50 ratio): 91 fold

SMILES: CCc1ccc(C(=O)/C=C/c2c3ccccc3cc3ccccc23)cc1 [Compound 21c, (E)-3-(anthracen-9-yl)-1-(4-ethylphenyl)prop-2-en-1-one]
melting point: 128 to 129 °C

SMILES: O=C(/C=C/c1c2ccccc2cc2ccccc12)c1ccccc1 [Compound 21f, (E)-3-(anthracen-9-yl)-1-phenylprop-2-en-1-one]
melting point: 128 to 130 °C

SMILES: O=C(/C=C/c1c2ccccc2cc2ccccc12)c1ccc(I)cc1 [Compound 21g, (E)-3-(anthracen-9-yl)-1-(4-iodophenyl)prop-2-en-1-one]
melting point: 167 to 173 °C

SMILES: Cc1ccc(C(=O)/C=C/c2c3ccccc3cc3ccccc23)cc1 [Compound 21j, (E)-3-(anthracen-9-yl)-1-(p-tolyl)prop-2-en-1-one]
melting point: 98 to 103 °C

SMILES: O=C(c1ccccc1)c1ccc(N2C(=O)C3C4c5ccccc5C(/C=C/C(=O)c5ccccn5)(c5ccccc54)C3C2=O)cc1 (centres unmarked) [Compound 26n, (E)-13-(4-Benzoylphenyl)-9-(3-oxo-3-(pyridin-2-yl)prop-1-en-1-yl)-9,10-dihydro-9,10-[3,4]epipyrroloanthracene-12,14-dione]
cell viability (HG-3 cells [7]): 4%
decrease in cell viability compared to 26f (HG-3 cells [1]; HG-3, 1 µM): 34%
decrease in cell viability compared to 26f (HG-3 cells [1]; HG-3, 10 µM): 82%
IC50 (HG-3 cells [1]): 1.85 µM
GI50 (HL-60(TB)): 1.9 µM
GI50 (MOLT-4): 2.29 µM
IC50 [8]: 1.12 µM
CC50 [9]: 100 µM
Mean TGI (MID TGI, total growth inhibition) ([9]; mean over NCI 60 cell line panel): 100.0 µM
GI50 ([9]; mean over NCI 60 cell line panel, read-out: Mean GI50 (MID GI50, full-panel mean-graph mid-point)): 7.58 µM
GI50 (SR): 1.37 µM
GI50 (K-562): 1.77 µM
GI50 (CCRF-CEM): 2.59 µM
decrease in cell viability compared to 26f (PGA-1 cells [6]; PGA-1, 1 µM): 20%
decrease in cell viability compared to 26f (PGA-1 cells [6]; PGA-1, 10 µM): 63%
IC50 (PGA-1 cells [6]; PGA-1, 24 h): 0.39 µM
Half-life pH 4 ([10]; pH 4 buffer): 8.5 h
% remaining 24 h pH 4 ([10]; pH 4 buffer, 24 h, HPLC): 10.97%
Half-life pH 7.4 ([10]; pH 7.4 buffer): 16.5 h
% remaining 24 h pH 7.4 ([10]; pH 7.4 buffer, 24 h, HPLC): 40.39%
Half-life pH 9 ([10]; pH 9 buffer): over 24 h
% remaining 24 h pH 9 ([10]; pH 9 buffer, 24 h, HPLC): 51.20%
GI50 (RPMI-8226): 2.49 µM
cell viability (PGA-1 cells [11]): 18%
GI50 (leukemia cell panel): 2.07 µM

SMILES: COC(=O)C1=C(C(=O)OC)C2(C=CC(=O)c3ccccc3)c3ccccc3C1c1ccccc12 [Compound 27, Dimethyl (E)-9-(3-oxo-3-phenylprop-1-en-1-yl)-9,10-dihydro-9,10-ethenoanthracene-11,12-dicarboxylate]
viability at 10 µM (HG-3 cells [1]; [12]): 50%
melting point: > 250 °C
viability at 10 µM (PGA-1 cells [6]; Homo sapiens, 24 h): 58%

More lines, main results first:

melting point: 160 to 164 °C
SMILES: COc1cc(C(=O)/C=C/c2c3ccccc3cc3ccccc23)cc(OC)c1OC [Compound 21k, (E)-3-(Anthracen-9-yl)-1-(3,4,5-trimethoxyphenyl)prop-2-en-1-one]
viability at 1 µM (HG-3 cells [1]; Homo sapiens): 50 to 61%
viability at 10 µM (HG-3 cells [1]; [12]): 37 to 54%
viability at 10 µM (PGA-1 cells [6]; Homo sapiens, 24 h): 43%

melting point: 170 to 173 °C
SMILES: O=C(/C=C/c1c2ccccc2cc2ccccc12)c1ccncc1 [Compound 21m, (E)-3-(anthracen-9-yl)-1-(pyridin-4-yl)prop-2-en-1-one]
viability at 1 µM (HG-3 cells [1]; Homo sapiens): 50 to 61%
viability at 10 µM (HG-3 cells [1]; [12]): 37 to 54%
viability at 10 µM (PGA-1 cells [6]; Homo sapiens, 24 h): 43%

melting point: 160 to 164 °C
SMILES: O=C(/C=C/c1c2ccccc2cc2ccccc12)c1ccc2ccccc2c1 [Compound 21p, (E)-3-(anthracen-9-yl)-1-(naphthalen-2-yl)prop-2-en-1-one]
viability at 10 µM (PGA-1 cells [6]; Homo sapiens, 24 h): 50%

melting point: 157 to 158 °C
SMILES: O=C(/C=C/c1c2ccccc2cc2ccccc12)c1cccs1 [Compound 21q, (E)-3-(anthracen-9-yl)-1-(thiophen-2-yl)prop-2-en-1-one]
